Test [1] has as its target T1, SMARCA2-HiBiT (Homo sapiens, UniProt P51531).
T1 construct: SMARCA2-HiBiT knock-in Hela monoclonal cell (CS302366); host or cells: HeLa monoclonal knock-in line (CRISPR HiBiT knock-in at the endogenous locus, heterozygous)
Briefly: SMARCA2 HiBiT degradation assay in HeLa cells. It is filed as cell-based. The settings on record: 18 hours incubation; for DC50: read-out: HeLa_HiBit-SM2 DC50; for Dmax: HeLa, read-out: HeLa-HiBit-SM2 Dmax (%). How it is done:
(§1) HiBiT peptide knock-in of SMARCA2 in LgBiT expressing HEK293T cells was performed by CRISPR-mediated tagging system as described Promega. The homozygous HiBiT knock-in on c-terminus SMARCA2 was confirmed by sanger sequence. SMARCA2-HiBiT knock-in Hela monoclonal cell (CS302366) and SMARCA4-HiBiT knock-in Hela monoclonal cell (CS3023226) were purchased from Promega. The heterozygous HiBiT-knock-in was confirmed by sanger sequence in both SMARCA2-HiBiT and SMARCA4-HiBiT monoclonal cells.
(§2) SMARCA2 HiBiT and SMARCA4 HiBiT Degradation Assay in HeLa Cells
(§3) Dispense 10 ul aliquot of prepared Hela-SMARCA2-HiBiT or Hela-SMARCA4-HiBiT cells (1:1 ratio of cells:Trypan Blue (#1450013, Bio-Rad)) onto cell counting slide (#145-0011, Bio-Rad) and obtain cell density and cell viability using cell counter (TC20, Bio-Rad). Remove appropriate volume of resuspended cells from culture flask to accommodate 2500 cells/well @20 μL/well. Transfer Hela-HiBiT cells to 50 mL conical (#430290, Corning). Spin down at 1000 rpm for 5 min using tabletop centrifuge (SPINCHRON 15, Beckman). Discard supernatant and resuspend cell pellet in modified EMEM (#30-2003, ATCC) cell culture media containing 10% FBS (F2422-500ML, Sigma), and 1×Penicillin/Streptomycin (200 g/L) (30-002-CI, Corning) to a cell density of 125,000 cells/mL. Dispense 20 μL of resuspended Hela-HiBit cells per well in 384-well TC treated plate (#12-565-343, Thermo Scientific) using standard cassette (#50950372, Thermo Scientific) on Multidrop Combi (#5840310, Thermo Scientific) inside laminar flow cabinet. Dispense test compounds onto plates using digital liquid dispenser (D300E, Tecan). Incubate plates in humidified tissue culture incubator @37° C. for 18 hours. Add 20 μL of prepared Nano-Glo® HiBiT Lytic detection buffer (N3050, Promega) to each well of 384-well plate using small tube cassette (#24073295, Thermo Scientific) on Multidrop Combi, incubate @RT for 30-60 min. Read plates on microplate reader (Envision 2105, PerkinElmer) using 384 well Ultra-Sensitive luminescence mode. Raw data files and compound information reports are swept into centralized data lake and deconvoluted using automated scripts designed by TetraScience, Inc. Data analysis, curve-fitting and reporting done in Dotmatics Informatics Suite using Screening Ultra module.
Background: With HiBiT, luminescence reflects the tagged protein that the partner subunit can reach.

In test [2] the target is T2, SMARCA4-HiBiT (Homo sapiens, UniProt P51532).
T2 construct: SMARCA4-HiBiT knock-in Hela monoclonal cell (CS3023226); host or cells: HeLa monoclonal knock-in line (CRISPR HiBiT knock-in at the endogenous locus, heterozygous)
The experiment in a line: SMARCA4 HiBiT degradation assay in HeLa cells. The class given is cell-based. Particulars: 18 hours incubation; for DC50: read-out: HeLa-HiBit-SM4 DC50; for Dmax: HeLa, read-out: HeLa-HiBit-SM4 Dmax (%). How it is done:
as §1, §2, §3

T2 sequence (P51532 whole entry): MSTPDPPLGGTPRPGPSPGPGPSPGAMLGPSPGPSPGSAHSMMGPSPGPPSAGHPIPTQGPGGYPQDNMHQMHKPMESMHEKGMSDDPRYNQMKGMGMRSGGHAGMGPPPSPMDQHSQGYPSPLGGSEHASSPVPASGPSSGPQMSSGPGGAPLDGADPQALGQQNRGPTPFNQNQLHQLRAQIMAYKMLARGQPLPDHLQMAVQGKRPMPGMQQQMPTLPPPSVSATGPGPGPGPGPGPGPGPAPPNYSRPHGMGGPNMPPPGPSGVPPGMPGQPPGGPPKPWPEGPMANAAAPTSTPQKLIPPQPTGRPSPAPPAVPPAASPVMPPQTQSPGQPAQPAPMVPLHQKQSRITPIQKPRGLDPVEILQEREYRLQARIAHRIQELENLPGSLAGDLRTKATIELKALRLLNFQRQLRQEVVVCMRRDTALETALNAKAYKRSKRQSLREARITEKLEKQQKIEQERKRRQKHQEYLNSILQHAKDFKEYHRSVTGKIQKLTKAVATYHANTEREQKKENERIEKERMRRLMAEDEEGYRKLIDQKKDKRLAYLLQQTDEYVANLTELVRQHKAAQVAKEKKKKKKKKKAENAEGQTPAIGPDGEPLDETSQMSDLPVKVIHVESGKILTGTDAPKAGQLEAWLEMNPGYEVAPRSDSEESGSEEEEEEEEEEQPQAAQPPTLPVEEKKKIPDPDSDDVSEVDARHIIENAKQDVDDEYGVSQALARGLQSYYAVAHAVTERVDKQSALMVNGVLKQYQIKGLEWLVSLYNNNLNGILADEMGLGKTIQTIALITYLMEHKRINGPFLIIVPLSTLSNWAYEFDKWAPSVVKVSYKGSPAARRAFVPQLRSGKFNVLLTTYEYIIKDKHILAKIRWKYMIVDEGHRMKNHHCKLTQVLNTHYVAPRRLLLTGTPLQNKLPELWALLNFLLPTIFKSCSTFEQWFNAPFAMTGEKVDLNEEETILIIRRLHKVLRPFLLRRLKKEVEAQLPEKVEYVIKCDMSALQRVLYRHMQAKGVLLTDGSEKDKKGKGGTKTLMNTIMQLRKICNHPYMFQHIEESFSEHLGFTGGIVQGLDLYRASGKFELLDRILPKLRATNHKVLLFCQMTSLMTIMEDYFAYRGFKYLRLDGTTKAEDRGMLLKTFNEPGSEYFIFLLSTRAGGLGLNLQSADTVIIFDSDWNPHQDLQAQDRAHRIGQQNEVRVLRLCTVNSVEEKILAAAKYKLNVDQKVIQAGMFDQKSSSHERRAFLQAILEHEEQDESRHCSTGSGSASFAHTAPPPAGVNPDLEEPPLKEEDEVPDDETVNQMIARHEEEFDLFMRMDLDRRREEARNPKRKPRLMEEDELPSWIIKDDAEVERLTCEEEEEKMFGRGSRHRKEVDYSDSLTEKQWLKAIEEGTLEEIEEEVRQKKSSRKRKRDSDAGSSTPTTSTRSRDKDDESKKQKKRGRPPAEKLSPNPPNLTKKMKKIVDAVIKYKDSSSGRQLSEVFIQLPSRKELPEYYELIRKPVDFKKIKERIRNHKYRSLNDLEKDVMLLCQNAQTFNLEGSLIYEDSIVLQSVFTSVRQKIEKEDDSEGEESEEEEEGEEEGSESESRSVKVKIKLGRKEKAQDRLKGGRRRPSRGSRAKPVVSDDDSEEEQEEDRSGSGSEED
T1 sequence (P51531 whole entry): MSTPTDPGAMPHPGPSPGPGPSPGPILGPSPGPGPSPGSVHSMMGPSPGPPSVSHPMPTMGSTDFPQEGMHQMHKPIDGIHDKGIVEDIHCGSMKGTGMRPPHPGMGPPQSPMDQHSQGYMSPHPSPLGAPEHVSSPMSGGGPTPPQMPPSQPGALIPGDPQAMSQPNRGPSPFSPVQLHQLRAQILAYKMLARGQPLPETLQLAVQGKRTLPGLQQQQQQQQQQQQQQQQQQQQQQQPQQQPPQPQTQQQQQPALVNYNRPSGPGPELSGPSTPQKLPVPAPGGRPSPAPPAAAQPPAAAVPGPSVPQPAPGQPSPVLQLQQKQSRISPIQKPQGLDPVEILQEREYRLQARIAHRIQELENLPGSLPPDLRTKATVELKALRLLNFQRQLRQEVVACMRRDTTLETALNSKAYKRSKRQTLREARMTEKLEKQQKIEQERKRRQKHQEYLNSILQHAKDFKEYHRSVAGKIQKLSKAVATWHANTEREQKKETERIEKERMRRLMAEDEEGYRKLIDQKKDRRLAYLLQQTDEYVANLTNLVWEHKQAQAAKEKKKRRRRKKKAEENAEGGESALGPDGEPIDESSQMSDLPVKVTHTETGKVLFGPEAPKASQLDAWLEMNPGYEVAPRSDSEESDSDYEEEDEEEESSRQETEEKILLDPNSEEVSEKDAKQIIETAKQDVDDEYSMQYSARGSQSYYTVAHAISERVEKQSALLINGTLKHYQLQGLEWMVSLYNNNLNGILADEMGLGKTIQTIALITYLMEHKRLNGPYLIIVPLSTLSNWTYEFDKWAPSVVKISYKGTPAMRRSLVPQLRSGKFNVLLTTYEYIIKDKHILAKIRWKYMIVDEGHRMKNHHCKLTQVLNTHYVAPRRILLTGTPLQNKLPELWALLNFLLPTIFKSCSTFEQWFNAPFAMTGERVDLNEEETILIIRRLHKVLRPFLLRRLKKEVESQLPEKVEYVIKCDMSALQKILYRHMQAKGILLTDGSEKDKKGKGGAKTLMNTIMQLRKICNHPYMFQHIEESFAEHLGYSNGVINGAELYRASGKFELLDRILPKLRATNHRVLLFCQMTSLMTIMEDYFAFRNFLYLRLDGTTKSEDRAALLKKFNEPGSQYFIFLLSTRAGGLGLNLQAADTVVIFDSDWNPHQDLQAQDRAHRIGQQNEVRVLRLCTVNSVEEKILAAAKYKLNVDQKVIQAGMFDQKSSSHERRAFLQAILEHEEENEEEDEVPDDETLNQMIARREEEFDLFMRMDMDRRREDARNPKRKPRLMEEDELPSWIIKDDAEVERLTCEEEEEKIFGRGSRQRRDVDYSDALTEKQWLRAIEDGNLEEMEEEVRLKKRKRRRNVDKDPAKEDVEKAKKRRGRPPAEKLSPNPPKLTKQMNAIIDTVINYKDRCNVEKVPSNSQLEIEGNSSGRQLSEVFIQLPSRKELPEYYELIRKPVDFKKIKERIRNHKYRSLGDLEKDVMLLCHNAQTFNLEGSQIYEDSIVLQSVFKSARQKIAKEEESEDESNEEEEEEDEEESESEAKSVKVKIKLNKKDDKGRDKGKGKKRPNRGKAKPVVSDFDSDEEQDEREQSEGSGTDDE

As for `C[C@H]1CN2c3cc(-c4ccccc4O)nnc3NC[C@H]2CN1C[C@H]1[C@@H]2CN(CC3CCN(c4ccc5c(c4)C(=O)N(C4CCC(=O)NC4=O)C5=O)CC3)C[C@@H]21` (stereo partly drawn) [Example 44, 2-(2,6-dioxopiperidin-3-yl)-5-(4-(((1R,5S,6r)-6-(((6aS,9S)-2-(2-hydroxyphenyl)-9-methyl-5,6,6a,7,9,10-hexahydro-8H-pyrazino[1′,2′:4,5]pyrazino[2,3-c]pyridazin-8-yl)methyl)-3-azabicyclo[3.1.0]hexan-3-yl)methyl)piperidin-1-yl)isoindoline-1,3-dione], in test [1], the DC50 is less than 10 nM and the maximal degradation (Dmax) was 75 to 85%. Besides, in test [2], the DC50 is less than 10 nM and the Dmax was 50 to 75%.

As to `O=C1CCC(N2C(=O)c3ccc(N4CCC(CN5C[C@H]6C[C@H](CN7CCN8c9cc(-c%10ccccc%10O)nnc9NC[C@H]8C7)C[C@H]6C5)CC4)cc3C2=O)C(=O)N1` (stereo partly drawn) [Example 45, 2-(2,6-dioxopiperidin-3-yl)-5-(4-(((3aR,5s,6aS)-5-(((S)-2-(2-hydroxyphenyl)-5,6,6a,7,9,10-hexahydro-8H-pyrazino [1′,2′:4,5]pyrazino[2,3-c]pyridazin-8-yl)methyl)hexahydrocyclopenta[c]pyrrol-2(1H)-yl)methyl)piperidin-1-yl)isoindoline-1,3-dione], in test [1], the half-maximal degradation concentration (DC50) is less than 10 nM and the greatest degradation seen (Dmax) is more than 85%. For the same compound, in test [2], the DC50 was less than 10 nM and the Dmax was more than 85%.

In the case of `O=C1CCC(N2C(=O)c3ccc(N4CCC(CN5CCC6C(C5)C6CN5CCN6c7cc(-c8ccccc8O)nnc7NC[C@H]6C5)CC4)cc3C2=O)C(=O)N1` (stereo partly drawn) [Example 46, 2-(2,6-dioxopiperidin-3-yl)-5-(4-((7-(((S)-2-(2-hydroxyphenyl)-5,6,6a,7,9,10-hexahydro-8H-pyrazino[1′,2′:4,5]pyrazino[2,3-c]pyridazin-8-yl)methyl)-3-azabicyclo[4.1,0]heptan-3-yl)methyl)piperidin-1-yl)isoindoline-1,3-dione], in test [1], the half-maximal degradation concentration (DC50) is less than 10 nM and the maximal degradation (Dmax) was more than 85%. Besides, in test [2], the DC50 is less than 10 nM and the greatest degradation seen (Dmax) was more than 85%.

With `O=C1CCC(N2C(=O)c3ccc(N4CCC(O)(CN5C[C@@H]6[C@@H](CN7CCN8c9cc(-c%10ccccc%10O)nnc9NC[C@H]8C7)[C@@H]6C5)CC4)cc3C2=O)C(=O)N1` (stereo partly drawn) [Example 47, 2-(2,6-dioxopiperidin-3-yl)-5-(4-hydroxy-4-(((1R,5S,6s)-6-(((S)-2-(2-hydroxyphenyl)-5,6,6a,7,9,10-hexahydro-811-pyrazino[1′,2′:4,5]pyrazino[2,3-c]pyridazin-8-yl)methyl)-3-azabicyclo[3.1.0]hexan-3-yl)methyl)piperidin-1-yl) isoindoline-1,3-dione], in test [1], the 50% degradation concentration (DC50) is less than 10 nM and the Dmax is more than 85%. Besides, in test [2], the 50% degradation concentration (DC50) was less than 10 nM and the maximal degradation (Dmax) fell in the range of 50 to 75%.

In the case of `O=C1CCC(N2C(=O)c3ccc(N4CCC(F)(CN5CCC(CN6CCN7c8cc(-c9ccccc9O)nnc8NC[C@H]7C6)CC5)CC4)cc3C2=O)C(=O)N1` (stereo partly drawn) [Example 48, 2-(2,6-dioxopiperidin-3-yl)-5-(4-fluoro-4-((4-(((S)-2-(2-hydroxyphenyl)-5,6,6a,7,9,10-hexahydro-8H-pyrazino[1′,2′:4,5]pyrazino[2,3-c]pyridazin-8-yl)methyl)piperidin-1-yl)methyl)piperidin-1-yl)isoindoline-1,3-dione], in test [1], the DC50 was less than 10 nM and the maximal degradation (Dmax) is more than 85%. Besides, in test [2], the 50% degradation concentration (DC50) is less than 10 nM and the maximal degradation (Dmax) fell in the range of 75 to 85%.

Regarding `O=C1CCC(N2C(=O)c3ccc(N4CCOC(CN5C[C@@H]6[C@H](C5)[C@H]6CN5CCN6c7cc(-c8ccccc8O)nnc7NC[C@H]6C5)C4)cc3C2=O)C(=O)N1` (stereo partly drawn) [Example 49, 2-(2,6-dioxopiperidin-3-yl)-5-(2-(((1R,5S,6s)-6-(((S)-2-(2-hydroxyphenyl)-5,6,6a,7,9,10-hexahydro-8H-pyrazino[1′,2′:4,5]pyrazino[2,3-c]pyridazin-8-yl)methyl)-3-azabicyclo[3.1.0]hexan-3-yl)methyl)morpholino)isoindoline-1,3-dione], in test [1], the half-maximal degradation concentration (DC50) is less than 10 nM and the Dmax was more than 85%. Moreover, in test [2], the half-maximal degradation concentration (DC50) was less than 10 nM and the Dmax lay in the range of 75 to 85%.

With `O=C1CCC(N2C(=O)c3ccc(N4CCC(O)(CN5CCC(CN6CCN7c8cc(-c9ccccc9O)nnc8NC[C@H]7C6)CC5)CC4)cc3C2=O)C(=O)N1` (stereo partly drawn) [Example 50, 2-(2,6-dioxopiperidin-3-yl)-5-(4-hydroxy-4-((4-(((S)-2-(2-hydroxyphenyl)-5,6,6a,7,9,10-hexahydro-8H-pyrazino[1′,2′:4,5]pyrazino[2,3-c]pyridazin-8-yl)methyl)piperidin-1-yl)methyl)piperidin-1-yl)isoindoline-1,3-dione], in test [1], the DC50 was less than 10 nM and the Dmax was more than 85%. Moreover, in test [2], the DC50 is less than 10 nM and the Dmax was 75 to 85%.

Consider `O=C1CCC(N2C(=O)c3ccc(N4CCO[C@@H](CN5C[C@@H]6[C@H](C5)[C@H]6CN5CCN6c7cc(-c8ccccc8O)nnc7NC[C@H]6C5)C4)cc3C2=O)C(=O)N1` (stereo partly drawn) [Example 51, 2-(2,6-dioxopiperidin-3-yl)-5-((S)-2-(((1R,5S,6R)-6-(((S)-2-(2-hydroxyphenyl)-5,6,6a,7,9,10-hexahydro-8H-pyrazino[1′,2′:4,5]pyrazino[2,3-c]pyridazin-8-yl)methyl)-3-azabicyclo[3.1.0]hexan-3-yl)methyl)morpholino)isoindoline-1,3-dione], for which, in test [1], the DC50 is less than 10 nM and the Dmax is more than 85%. Further, in test [2], the half-maximal degradation concentration (DC50) is less than 10 nM and the greatest degradation seen (Dmax) lay in the range of 50 to 75%.

`O=C1CCC(N2C(=O)c3ccc(N4CCO[C@H](CN5C[C@@H]6[C@H](C5)[C@H]6CN5CCN6c7cc(-c8ccccc8O)nnc7NC[C@H]6C5)C4)cc3C2=O)C(=O)N1` (stereo partly drawn) [Example 52, 2-(2,6-dioxopiperidin-3-yl)-5-((R)-2-(((1R,5S,6S)-6-(((S)-2-(2-hydroxyphenyl)-5,6,6a,7,9,10-hexahydro-8H-pyrazino[1′,2′:4,5]pyrazino[2,3-c]pyridazin-8-yl)methyl)-3-azabicyclo[3.1.0]hexan-3-yl)methyl)morpholino)isoindoline-1,3-dione]: in test [1], the DC50 was less than 10 nM and the Dmax is more than 85%. In test [2], the DC50 is less than 10 nM and the Dmax lay in the range of 75 to 85%.

With `O=C1CCC(N2C(=O)c3ccc(N4CC5CCC(C4)C5CN4C[C@@H]5[C@H](C4)[C@H]5CN4CCN5c6cc(-c7ccccc7O)nnc6NC[C@H]5C4)cc3C2=O)C(=O)N1` (stereo partly drawn) [Example 53, 2-(2,6-dioxopiperidin-3-yl)-5-(8-(((1R,5S,6r)-6-(((S)-2-(2-hydroxyphenyl)-5,6,6a,7,9,10-hexahydro-8H-pyrazino [1′,2′:4,5]pyrazino[2,3-c]pyridazin-8-yl)methyl)-3-azabicyclo [3.1,0]hexan-3-yl)methyl)-3-azabicyclo[3.2.1]octan-3-yl)isoindoline-1,3-dione], in test [1], the DC50 is less than 10 nM and the Dmax lay in the range of 75 to 85%. Also, in test [2], the 50% degradation concentration (DC50) was less than 10 nM and the maximal degradation (Dmax) was 50 to 75%.

Consider `C[C@H]1CN2c3cc(-c4ccccc4O)nnc3NC[C@H]2CN1C[C@H]1[C@@H]2CN(CC3CCN(c4ccc5c(c4)C(=O)N(C4CCC(=O)NC4=O)C5)CC3)C[C@@H]21` (stereo partly drawn) [Example 54, 3-(6-(4-(((1R,5S,6r)-6-(((6aS,9S)-2-(2-hydroxyphenyl)-9-methyl-5,6,6a,7,9,10-hexahydro-8H-pyrazino[1′,2′:4,5]pyrazino[2,3-c]pyridazin-8-yl)methyl)-3-azabicyclo[3.1.0]hexan-3-yl)methyl)piperidin-1-yl)-1-oxoisoindolin-2-yl)piperidine-2,6-dione], for which, in test [1], the DC50 is less than 10 nM and the Dmax lay in the range of 75 to 85%. For the same compound, in test [2], the 50% degradation concentration (DC50) was 10 to 100 nM and the maximal degradation (Dmax) fell in the range of 50 to 75%.

The term DC50 denotes the midpoint of the concentration-degradation curve. For orientation: Dmax means the greatest extent of degradation seen.

The values above are taken from patent US12448389B2, “BRM targeting compounds and associated methods of use” (Prelude Therapeutics Incorporated, priority 2020, dated 2025).
